# Laboratory results taken from the supplement of paper PMC5752671.
# Structures can show the parent of a compound that is named as a salt.
# Legend:
# [1] = system: EOL-1; test: IC50 (cell viability) (log10 M); settings: 4 days
# How it was run: (§1)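 Fourteen leukemia cell lines were plated on extracellular-matrix-coated 384-well plates. Drugs were added robotically the next day at eight concentrations spanning 4–5 logs within 10^–12–10^–4 M, tailored per drug, in duplicate. Viability was read with CellTiter-Glo after 4 days. IC50 is the concentration where a fitted four-parameter curve crosses 50% viability, in log10 M; where that is not reached, the highest tested concentration is entered.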
# [2] = system: HL60; test: IC50 (cell viability) (log10 M); settings: 4 days
# How it was run: as §1
# [3] = system: KASUMI1; test: IC50 (cell viability) (log10 M); settings: 4 days
# How it was run: as §1
# [4] = system: KG1; test: IC50 (cell viability) (log10 M); settings: 4 days
# How it was run: as §1
# [5] = system: MOLM/13; test: IC50 (cell viability) (log10 M); settings: 4 days
# How it was run: as §1
# [6] = system: MOLM/16; test: IC50 (cell viability) (log10 M); settings: 4 days
# How it was run: as §1
# [7] = system: MV4.11; test: IC50 (cell viability) (log10 M); settings: 4 days
# How it was run: as §1
# [8] = system: NB4; test: IC50 (cell viability) (log10 M); settings: 4 days
# How it was run: as §1
# [9] = system: OCI-AML2; test: IC50 (cell viability) (log10 M); settings: 4 days
# How it was run: as §1
# [10] = system: OCI-AML3; test: IC50 (cell viability) (log10 M); settings: 4 days
# How it was run: as §1
# [11] = system: PL-21; test: IC50 (cell viability) (log10 M); settings: 4 days
# How it was run: as §1
# [12] = system: SKM1; test: IC50 (cell viability) (log10 M); settings: 4 days
# How it was run: as §1
# [13] = system: THP-1; test: IC50 (cell viability) (log10 M); settings: 4 days
# How it was run: as §1
# [14] = system: U937; test: IC50 (cell viability) (log10 M); settings: 4 days
# How it was run: as §1
# [15] = system: EOL-1; test: area under dose-response curve (cell viability) (AUC (arbitrary, % viability x log concentration)); higher = less sensitive (more viable); settings: 4 days
# How it was run: (§2)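 Drugs were dispensed robotically, one day after plating, onto fourteen leukemia cell lines in 384-well plates coated with extracellular matrix. Each drug was tested in duplicate at eight concentrations spanning 4–5 logs inside 10^–12–10^–4 M, adjusted per drug, and CellTiter-Glo readout followed after 4 days. Duplicates were averaged and a four-parameter sigmoid was fitted. The area under that fitted curve is the reported value.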
# [16] = system: HL60; test: as above; settings: 4 days
# How it was run: as §2
# [17] = system: KASUMI1; test: as above; settings: 4 days
# How it was run: as §2
# [18] = system: OCI-AML2; test: as above; settings: 4 days
# How it was run: as §2
# [19] = system: AML190 (primary AML patient cells); test: area under dose-response curve (cell viability), refractory AML patient cells (AUC (arbitrary, % viability x log concentration)); higher = less sensitive (more viable); settings: 4 days; sample type: primary refractory AML patient cells
# How it was run: (§3)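 Each value is the area under the fitted dose-response curve. Primary cells from 12 refractory AML patients on a clinical trial went through the same high-throughput screen in extracellular-matrix-coated 384-well plates, with drugs at eight concentrations within 10^–12–10^–4 M in duplicate. Viability was measured with CellTiter-Glo after 4 days.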
# [20] = system: AML223 (primary AML patient cells); test: as above; settings: 4 days; sample type: primary refractory AML patient cells
# How it was run: as §3
IC50 (log10 M) [2],IC50 (log10 M) [5],IC50 (log10 M) [6],IC50 (log10 M) [7],IC50 (log10 M) [9],IC50 (log10 M) [10],IC50 (log10 M) [12],IC50 (log10 M) [13],IC50 (log10 M) [14],SMILES,IC50 (log10 M) [1],IC50 (log10 M) [3],IC50 (log10 M) [4],IC50 (log10 M) [8],IC50 (log10 M) [11],area under dose-response curve [15],area under dose-response curve [16],area under dose-response curve [17],area under dose-response curve [18],area under dose-response curve [19],area under dose-response curve [20]
-6.37,-6.57,-7.26,-6.32,-6.23,-6.51,-6.24,-6.66,-7.23,O=C1NC(=O)[C@@H](c2cn3c4c(cccc24)CCC3)[C@@H]1c1c[nH]c2ccccc12 [ARQ-197],-6.74,-6.31,-6.48,-6.94,-6.31,465,524,523,489,548,481
-5.74,-5.82,-6.53,-5.78,-5.74,-5.84,-5.8,-5.85,-6.45,Nc1cc(C(F)(F)F)c(-c2cc(N3CCOCC3)nc(N3CCOCC3)n2)cn1 [BKM-120],-6.36,-5.95,-5.83,-5.9,-5.86,486,613,602,558,585,554
> -5,> -5,> -5,> -5,> -5,> -5,> -5,> -5,> -5,NC(=O)c1ccc(I)c([N+](=O)[O-])c1 [BSI-201],> -5,> -5,> -5,> -5,> -5,622,717,722,664,735,677
> -5,> -5,-5.22,-5.3,> -5,> -5,> -5,> -5,> -5,CC[C@H](Nc1ncnc2[nH]cnc12)c1nc2cccc(F)c2c(=O)n1-c1ccccc1 [CAL-101],-5.16,-5.08,> -5,> -5,> -5,558,644,552,573,649,568
> -5,> -5,> -5,> -5,> -5,> -5,> -5,> -5,> -5,CS(=O)(=O)c1ccc(C(=O)Nc2ccc(Cl)c(-c3ccccn3)c2)c(Cl)c1 [GDC-0449],> -5,> -5,> -5,> -5,> -5,608,747,730,640,628,614

# Second part, the molecule before the results:
SMILES,IC50 (log10 M) [2],IC50 (log10 M) [5],IC50 (log10 M) [6],IC50 (log10 M) [7],IC50 (log10 M) [9],IC50 (log10 M) [10],IC50 (log10 M) [12],IC50 (log10 M) [13],IC50 (log10 M) [14],IC50 (log10 M) [1],IC50 (log10 M) [3],IC50 (log10 M) [4],IC50 (log10 M) [8],IC50 (log10 M) [11],area under dose-response curve [15],area under dose-response curve [16],area under dose-response curve [17],area under dose-response curve [18],area under dose-response curve [19],area under dose-response curve [20]
COc1cc(OC)c(/C=C/S(=O)(=O)Cc2ccc(OC)c(NCC(=O)O)c2)c(OC)c1,-6.93,-7.17,-7.73,-7.3,-7.47,-7.72,-7.05,-7.33,-7.57,-7.51,-6.87,-7,-7.28,-7.41,354,473,474,344,577,469
Cc1ccc(C(=O)Nc2ccc(CN3CCN(C)CC3)c(C(F)(F)F)c2)cc1C#Cc1cnc2cccnn12,-6.17,-8.29,-6.82,-8.82,-6.41,-6.28,-6.04,-6.06,-6.07,< -9.34,-6.5,-7.98,-6.12,-6.11,149,593,433,525,272,371
C[C@]1(c2nc3c(C(N)=O)cccc3[nH]2)CCCN1 [ABT-888],> -5,> -5,> -5,> -5,> -5,> -5,> -5,> -5,> -5,> -5,> -5,> -5,> -5,> -5,650,668,663,620,583,465
CCN(CC)CCCC(C)Nc1c2ccc(Cl)cc2nc2ccc(OC)cc12 (stereo not given) [Acrichine],-5.35,-5.57,-5.52,-5.79,-5.69,-5.45,-5.47,-5.33,-5.48,-5.82,-5.52,-5.44,-5.46,-5.46,545,673,639,559,490,501
CC(C)C[C@H](NC(=O)[C@H](Cc1ccccc1)NC(=O)c1cnccn1)B(O)O [Bortezomib],-8.05,-8.37,-8.07,-8.1,-8.06,-8.3,-8.6,-8.06,-8.32,-8.29,-8.06,-8.25,-8.38,-8.04,283,334,338,330,224,237
CS(=O)(=O)OCCCCOS(C)(=O)=O [Busulfan],> -5,> -5,> -5,-5.24,> -5,> -5,> -5,> -5,> -5,-5.23,> -5,> -5,> -5,> -5,631,653,651,639,582,645
Nc1nc(Cl)nc2c1ncn2[C@H]1C[C@H](O)[C@@H](CO)O1 [Cladribine],-7.09,-7.74,-7.36,< -8.48,< -8.48,-8.35,-6.97,-6.82,-8.47,< -8.48,-6.94,-6.79,-7.52,-8.25,131,515,512,194,339,572
Nc1nc(Cl)nc2c1ncn2[C@@H]1O[C@H](CO)[C@@H](O)[C@@H]1F [Clofarabine],-6.93,-6.86,-6.78,-6.57,-7.05,-7.09,-6.7,-6.56,-7.66,-7.52,-6.93,-6.93,-6.74,-7.51,371,571,574,419,415,511
C[C@@H](Oc1cc(-c2cnn(C3CCNCC3)c2)cnc1N)c1c(Cl)ccc(F)c1Cl [Crizotinib],-5.49,-5.75,-5.86,-5.68,-5.5,-5.41,-5.49,-5.41,-5.61,-5.82,-5.64,-5.49,-5.61,-5.59,524,696,639,614,557,556
Nc1ccn([C@@H]2O[C@H](CO)[C@@H](O)[C@@H]2O)c(=O)n1 [Cytarabine HCl],-7.08,< -7.34,-7.19,-7.21,< -7.34,-6.73,-6.81,-6.53,< -7.34,< -7.34,< -7.34,-7.29,< -7.34,< -7.34,280,410,383,110,482,612
Cc1nc(Nc2ncc(C(=O)Nc3c(C)cccc3Cl)s2)cc(N2CCN(CCO)CC2)n1 [Dasatinib],> -5,-5.55,-5.46,-5.37,-5.37,> -5,> -5,> -5,> -5,-7.46,> -5,-5.39,> -5,-5.46,306,761,469,619,288,618
COc1cccc2c1C(=O)c1c(O)c3c(c(O)c1C2=O)C[C@@](O)(C(C)=O)C[C@@H]3O[C@H]1C[C@H](N)[C@H](O)[C@H](C)O1 [Daunorubicin HCl],-7.03,-7.09,-6.96,-8.28,-7.03,-6.98,-7.2,-7,-7,-8.26,-6.96,-6.76,-7.23,-6.92,330,479,440,399,398,431
Nc1ncn([C@H]2C[C@H](O)[C@@H](CO)O2)c(=O)n1 [Decitabine],-5.1,< -8.34,< -8.34,-5.06,-7.26,-6.05,-5.53,-5.82,-6.97,< -8.34,-5.3,-6.39,-8.3,-6.43,161,582,516,362,623,684
CO[C@H]1C[C@@H]2CC[C@@H](C)[C@@](O)(O2)C(=O)C(=O)N2CCCC[C@H]2C(=O)O[C@H]([C@H](C)C[C@@H]2CC[C@@H](OCCO)[C@H](OC)C2)CC(=O)[C@H](C)/C=C(\C)[C@@H](O)[C@@H](OC)C(=O)[C@H](C)C[C@H](C)/C=C/C=C/C=C/1C [Everolimus],> -5,-5.39,-5.83,-6,-5.02,> -5,-5.4,> -5,-7.7,-8.2,> -5,> -5,> -5,-5.1,288,568,471,509,485,549
Nc1nc(F)nc2c1ncn2[C@@H]1O[C@H](CO)[C@@H](O)[C@@H]1O [Fludarabine],-5.2,-5.23,-5.46,-5.34,-5.56,-5.41,-5.13,> -5,-5.74,-5.77,-5.19,-5.01,> -5,-5.62,570,643,655,564,518,573
